Data: ChEMBL document CHEMBL1138328, “Coumarin-based inhibitors of human NAD(P)H:quinone oxidoreductase-1. Identification, structure-activity, off-target effects and in vitro human pancreatic cancer toxicity” (J Med Chem, 2007)
Calls of active or inactive are those of the source. The calls are words filed in the database; no cut-off is given here.

Key:
[1] = molecular target: T1, NAD(P)H dehydrogenase [quinone] 1 (Homo sapiens, UniProt P15559)
Description: Inhibition of human recombinant NQO1 in presence of BSA

[2] = molecular target: T1, NAD(P)H dehydrogenase [quinone] 1; remark: listed apart in the source
Description: Inhibition of human recombinant NQO1

[3] = test system: MIA PaCa-2; assay: Cytotoxicity against human MIA PaCa2 cells by MTT assay; assay type: functional, cell-based
[4] = test system: MIA PaCa-2; assay: Induction of superoxide formation in human MIA PaCa2 cells; assay type: functional, cell-based
[5] = test system: MIA PaCa-2; assay: Growth inhibition of human MIA PaCa2 cells; assay type: functional, cell-based
[6] = test system: MIA PaCa-2; assay: Effect on respiration rate in human MIA PaCa2 cells assessed as oxygen consumption per 10^6 cells at 100 uM; assay type: functional

T1 sequence (P15559 whole entry): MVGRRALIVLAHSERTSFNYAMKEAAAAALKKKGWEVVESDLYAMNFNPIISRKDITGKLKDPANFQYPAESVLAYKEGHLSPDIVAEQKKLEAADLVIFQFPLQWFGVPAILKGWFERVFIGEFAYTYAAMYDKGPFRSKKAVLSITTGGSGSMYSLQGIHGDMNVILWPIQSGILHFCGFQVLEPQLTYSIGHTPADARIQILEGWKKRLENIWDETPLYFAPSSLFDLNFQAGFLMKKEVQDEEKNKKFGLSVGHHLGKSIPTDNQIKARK

Structure (SMILES)	IC50 [1]	IC50 [2]	IC50 [3]	Activity [4]	Activity [5]	Activity [6]
Nc1cc(=O)oc2ccccc12	13 µM	3.25 µM	–	–	–	–
O=c1c(C(c2cnc3ccccc3c2)c2c(O)oc3ccccc3c2=O)c(O)oc2ccccc12	18 µM	0.38 µM	–	–	–	–
O=c1c(C(c2ccc3ccccc3c2)c2c(O)oc3ccccc3c2=O)c(O)oc2ccccc12	8.5 µM	0.14 µM	–	–	–	–
O=c1oc2ccccc2c(O)c1Cc1c(O)c2ccccc2oc1=O [DICUMAROL]	–	–	75 µM	Active	Dose-dependent effect	7 nmol/min
O=c1c(C(c2cccs2)c2c(O)oc3ccccc3c2=O)c(O)oc2ccccc12	10 µM	0.55 µM	–	–	–	–
O=c1c(C(c2ccco2)c2c(O)oc3ccccc3c2=O)c(O)oc2ccccc12	5.9 µM	1.3 µM	–	–	–	–
COc1ccc(C(c2c(O)c3ccccc3oc2=O)c2c(O)c3ccccc3oc2=O)cc1	8.7 µM	0.22 µM	–	–	–	–
O=c1c(Cc2c(O)oc3cc(O)ccc3c2=O)c(O)oc2cc(O)ccc12	0.35 µM	0.005 µM	190 µM	–	Dose-dependent effect	2.6 nmol/min
COc1cc(C(c2c(O)c3ccccc3oc2=O)c2c(O)c3ccccc3oc2=O)ccc1O	10 µM	0.65 µM	–	–	–	–
O=c1oc2ccccc2c(O)c1C1c2ccccc2Oc2c1c(=O)oc1ccccc21 (stereo unspecified)	–	–	150 µM	–	Dose-dependent effect	2.5 nmol/min
O=C1OC2C=CC=CC2=C2Oc3c(c(=O)oc4ccccc34)C(c3c(O)c4ccccc4oc3=O)C12 (stereo unspecified)	0.6 µM	0.25 µM	140 µM	–	Dose-dependent effect	2.5 nmol/min
